Measurements from PubChem BioAssay (NCI).
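All cell lines were grown in 96-well plates and treated with compound for 48 hours. TGI: concentration producing complete growth inhibition.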

What was measured:
Assay in all cases: inhibition of tumour cell growth, NCI panel, 48 h
LOX IMVI melanoma = tested on: LOX IMVI melanoma
HT29 colon = tested on: HT29 colon
UO-31 renal = tested on: UO-31 renal
MALME-3M melanoma = tested on: MALME-3M melanoma
NCI-H522 lung = tested on: NCI-H522 lung
HOP-62 NSCLC = tested on: HOP-62 NSCLC
SK-MEL-5 melanoma = tested on: SK-MEL-5 melanoma
786-0 renal = tested on: 786-0 renal
SW-620 colon = tested on: SW-620 colon
RXF 393 renal = tested on: RXF 393 renal
MCF7 breast = tested on: MCF7 breast
M14 melanoma = tested on: M14 melanoma
HCT-15 colon = tested on: HCT-15 colon
OVCAR-3 ovarian = tested on: OVCAR-3 ovarian
IGROV1 ovarian = tested on: IGROV1 ovarian
UACC-62 melanoma = tested on: UACC-62 melanoma
K-562 leukemia = tested on: K-562 leukemia

Compound	TGI (LOX IMVI melanoma) [µM]	TGI (HT29 colon) [µM]	TGI (UO-31 renal) [µM]	TGI (MALME-3M melanoma) [µM]	TGI (NCI-H522 lung) [µM]	TGI (HOP-62 NSCLC) [µM]	TGI (SK-MEL-5 melanoma) [µM]	TGI (786-0 renal) [µM]	TGI (SW-620 colon) [µM]	TGI (RXF 393 renal) [µM]	TGI (MCF7 breast) [µM]	TGI (M14 melanoma) [µM]	TGI (HCT-15 colon) [µM]	TGI (OVCAR-3 ovarian) [µM]	TGI (IGROV1 ovarian) [µM]	TGI (UACC-62 melanoma) [µM]	TGI (K-562 leukemia) [µM]
CNc1ccc2c(c1)[C@@]1(C)c3ccccc3[C@@H](C2)N1C	36.6	64.8	> 100	82.1	37.7	> 100	32	34.3	> 100	50.8	> 100	49.6	53	50.5	> 100	35.7	67.5
COc1cc(-c2cc(-c3ccccc3)nc(-c3c(OC)ccc4c(C)cc(=O)oc34)c2)cc(OC)c1OC	> 100	> 100	> 100	> 100	> 100	> 100	> 100	> 100	> 100	> 100	> 100	> 100	> 100	> 100	> 100	> 100	> 100
CC[C@]1(Cc2ccc(OC)c(OC)c2)C=[N+]([O-])O[C@H](OC2CCCC2(c2ccccc2)c2ccccc2)[C@@H]1OC(C)=O (stereo not given in full)	6.47	4.55	12.6	4.83	9.77	29.4	11.9	3.67	> 100	4.35	8	14.9	15.8	4.13	10.6	12.7	> 27.7
CC(=O)OCC1OC(OC2CC3C(C)(C)C(OC(C)=O)CC[C@]3(C)C3CCC45CC4(CCC5[C@@H](C)C[C@H](O)C(O)C(C)(C)O)[C@]23C)C(O)C(O)C1O (stereo not given in full)	> 10	> 10	> 10	> 10	> 10	> 10	> 10	> 10	> 10	> 10	> 10	> 10	> 10	> 10	> 10	> 10	> 10
Cc1cccc(CP(Cc2cccc(C)c2)CC2(Cp3c4ccccc4c4ccccc43)COC2)c1	> 100	> 100	> 100	> 83.3	> 85.8	> 100	13.4	> 31.6	> 100	> 100	> 100	> 100	> 100	> 100	> 100	> 100	> 100
O=C(NCCNCCCNC(=O)c1cc(-c2ccccc2)nc2ccccc12)c1cccc(O)c1O	> 100	22.2	14.9	20.2	29.7	15.9	4.09	> 100	> 100	47.7	15.9	10.4	26.8	26.3	28.9	12.1	11.1
CCOC(=O)c1cn2c(n1)sc1c(Cl)c(Cl)ccc12	> 100	> 45.6	> 100	8.92	43.4	> 51.3	65.7	31.2	> 100	> 100	> 100	> 96.3	> 100	> 58.1	> 100	> 100	> 46.9
COc1cc2c(cc1OCCCCN1C(=O)c3cccc4cccc(c34)C1=O)N=C[C@@H]1CCCN1C2=O	> 100	18.8	3.4	16.1	4.59	33.6	4.42	9.73	> 38.8	3.63	22.4	> 34.3	14.8	10.4	6.01	39.9	> 100
CN(C)CCNC(=O)c1cc([N+](=O)[O-])cc2c1Oc1ccccc1O2	> 100	> 100	33.2	97.9	> 100	> 100	> 100	> 100	> 100	93.7	> 100	> 100		> 100	> 100	39.2	> 100
Brc1cc(CCOC2CCCCO2)c(-c2sccc2CCOC2CCCCO2)s1 (stereo not given)	> 71.2	> 100	> 42.1	87.7	> 69.6	> 100	> 100	> 100	> 100	3	> 80	> 100	> 100	> 100	> 100	> 100	> 31.6
C[C@H](NC(=O)c1ccc(CNC(=O)/C=C/c2cccc(Oc3ccccc3)c2)cc1)c1ccccc1	> 100	> 100	> 100	> 100	> 100	> 100	> 100	> 100	> 100	80.3	> 100	> 100	> 100	> 100	> 100	> 100	> 100
CCOC(=O)c1nc2ccccc2nc1NCc1cc(OC)c(OC)c(OC)c1	> 100	> 100	> 100	> 100	> 100	> 100	> 100	> 100	> 100	> 100	> 100		> 100	> 100	> 100	> 100	> 100
O=C1NC(=S)N/C1=C\c1ccc(Br)s1	> 100	> 100	> 100	> 100	> 100	> 100	> 100	> 100	> 100	> 100	> 100		> 100	> 100	> 100	> 100	> 100
O=C(CCCN1CCC2(CC1)CC(=O)N(N1CCCCCC1)C2=O)c1ccccc1	> 100	> 100	> 100	> 100	> 100	> 100	> 100	> 100		> 100	> 100	> 100	> 100	> 100	> 100	> 100	> 100
CCCCc1ccc(Nc2nc(SC)c3[nH]cnc3n2)cc1	> 100	> 100	> 100	> 100	> 100	57.7	> 100	> 100	> 100	> 100	> 100	> 100	> 100	> 93.5	> 100	> 100	> 31.3
C=CCOC(=O)NC1C(OC(C)[C@@H](NC(=O)OCc2ccccc2)C(=O)OC(C)(C)C)OC(COC(C)=O)C(OC(C)=O)C1OC(C)=O (stereo not given in full)	> 100	> 100	47.3	> 100	> 100	> 100	> 100	> 100	> 100	> 100	> 100	> 100	> 100	> 100	> 100	> 100	> 100
Cc1cc2c(cc1Cl)S(=O)(=O)OC(c1ccc([N+](=O)[O-])cc1)=N2	> 100	> 100	> 100	> 100	> 100	> 100	> 100	> 100	> 100	> 100	> 100	> 100	> 100	> 100	> 100	> 100	> 100
Nc1ccc2c(SCc3ccc([N+](=O)[O-])cc3)c3ccccc3nc2c1	19.1	32.6	27.2	26.8	15.1	46.5	28.4	20.1	13.8	42.3	27.6	24.1	31.1	30.2	39.5	31.3	27.9
COC(=O)CNS(=O)(=O)c1ccc(-c2c3nc(c(-c4ccc(S(=O)(=O)NCC(=O)OC)cc4)c4ccc([nH]4)c(-c4ccc(S(=O)(=O)NCC(=O)OC)cc4)c4nc(c(-c5ccc(S(=O)(=O)NCC(=O)OC)cc5)c5ccc2[nH]5)C=C4)C=C3)cc1	> 100	> 100	> 100	> 100	> 100	> 100	> 100	> 100	> 100	> 100	> 100	41.9	> 100	> 100	> 100	> 100	> 100
Nc1cccc(/C=C/C(=O)N2CCN(CCOC(c3ccccc3)c3ccccc3)CC2)c1	32.2	21.6	30.5	31.2	28.7	32.4	29.4	30.3	35	28.7	31.5	26	31.5	32	33.6	29.6	26.7
CN(C)C(=S)/N=c1\ssc(=S)n1Cc1cccnc1	> 100	> 49.5	> 100	> 100	9.61	> 100	37.8	> 100	> 53.2	17.8	> 100	59.2	> 75	9.47	> 100	> 67.7	> 100
NC(=O)c1cc2ccc(O)cc2oc1=Nc1ccccc1	> 100	> 100	> 100	> 100	77.9	> 100	69	> 100	> 100	> 100	> 100	> 100	> 100	> 100	> 100	> 100	> 100
